Results as given in article PMC4060991, “The Human Orphan Nuclear Receptor Tailless (TLX, NR2E1) Is Druggable” (PLoS ONE, 2014).

Experiments:
[1] = tested on: GAL4 DBD vector; test: Luciferase assay in HeLa cells transfected with empty GAL4 DBD vector (absence of TLX); type: cell-based, human; conditions: different concentrations, 16 h
Method: HeLa cells were maintained in D-MEM High Glucose (Hyclone) supplemented with 10% charcoal:dextran stripped FBS (Hyclone) and 1x Pen/Strep antibiotics (Life Technologies). Transient transfections were carried out in batches on 100,000 cells seeded into 12-well tissue culture plates. The co-transfections were performed using the TransFectin Lipid reagent (Bio-Rad) with approximately 10 ng/well of Gal4 DBD (gift from Phuong Nguyen, Fletterick Laboratory, UCSF) or GAL4-TLX LBD, 10 ng/well of renilla luciferase gene (Promega) for internal control and 200 ng/well of pGL4.35 reporter gene (containing an upstream Gal4 Upstream Activator Sequence and the luciferase gene, Promega). Approximately, 3 h after transfections, cells were treated with compounds of interest at different concentrations, or solvent (DMSO, 0.1%) in DMEM containing no fetal bovine serum or antibiotics. After a 16-h incubation, luciferase activities were assessed using Dual Luciferase assay reagent (Promega). Luciferase activities were calculated by normalizing firefly luciferase to renilla luciferase signal. […] Cells transfected with Gal4 DBD vector served as a control for TLX independent effects.

[2] = target: ERβ LBD (Homo sapiens, UniProt Q92731); test: Gal4 DBD-ERβ LBD luciferase transactivation assay in HeLa cells; type: cell-based; design: vectors encoding either Gal4 DBD or Gal4 DBD-ERβ LBD fusion; expressed in transfected cells; host or cells: HeLa; conditions: 10 µM, 24 h, alone or in competition with E2 100 nM
Sequence of ERβ LBD (Q92731 264-498 limits assumed): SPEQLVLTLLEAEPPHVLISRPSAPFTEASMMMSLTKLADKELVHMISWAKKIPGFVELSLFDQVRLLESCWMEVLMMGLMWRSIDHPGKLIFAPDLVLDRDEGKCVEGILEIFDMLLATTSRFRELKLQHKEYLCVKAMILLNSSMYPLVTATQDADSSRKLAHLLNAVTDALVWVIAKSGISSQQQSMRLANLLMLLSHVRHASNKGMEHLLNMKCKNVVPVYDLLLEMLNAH
Method: For ERβ, transient cotransfections of HeLa cells with vectors encoding either Gal4 DBD or Gal4 DBD-ERβ LBD fusion (gift from Dr. Stefan Andersson, University of Houston, deceased), both at 10 ng/well, constructs for Gal4-E1B promoter linked to a luciferase reporter gene (200 ng/well) and renilla luciferase gene (10 ng/well, internal control) were performed in batches of 10^5 cells seeded into 12-well tissue culture plates. At 24 h after the transfections, cells were treated with either DMSO (0.1%, control) or ccrp1; ccrp2 and ccrp3 at 10 µM, in the presence or absence of estradiol (E2, 100 nM), in the medium containing no fetal bovine serum. Following 24 h incubation, luciferase activities in each well were assessed as described above. Cells transfected with Gal4 DBD vector served as a control for ERβ independent effects.

[3] = target: T1, human PNR (NR2E3) LBD (Homo sapiens, UniProt Q9Y5X4); test: GAL4-PNR LBD luciferase transactivation assay in HeLa cells; type: cell-based; conditions: 10 µM, 24 h
T1 construct: expressed in transfected cells; host or cells: HeLa
T1 sequence (Q9Y5X4 192-410): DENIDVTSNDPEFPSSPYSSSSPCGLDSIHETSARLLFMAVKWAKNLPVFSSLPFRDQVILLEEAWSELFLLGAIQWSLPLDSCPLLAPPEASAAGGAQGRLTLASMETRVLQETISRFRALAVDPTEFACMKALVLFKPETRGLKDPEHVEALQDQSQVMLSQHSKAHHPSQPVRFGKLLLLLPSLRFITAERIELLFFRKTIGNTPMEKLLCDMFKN
Method: For the transactivation assays involving human PNR (Photoreceptor cell-specific Nuclear Receptor, NR2E3) LBD, we used an already described pBIND-PNR LBD (residues 192–410, [37]) plasmid (gift from Dr. H. Eric Xu, Van Andel Institute). The transient co-transfections of HeLa cells with vectors encoding either Gal4DBD or pBIND-PNR LBD fusion (both at 50 ng/well), pGL4.35 reporter gene (200 ng/well) and renilla luciferase gene (50 ng/well, internal control) were performed in batches of 10^5 cells seeded into 12-well tissue culture plates. Twenty-four hours after the transfections, cells were treated with either DMSO (0.1%, control) or compounds ccrp1, ccrp2 or ccrp3 at 10 µM. Following 24 h incubation, luciferase activities in each well were assessed as described above. Cells transfected with Gal4 DBD vector served as a control for PNR independent effects.

[4] = target: T2, human RXRα LBD (Homo sapiens, UniProt P19793); test: GAL4 DBD-RXRα LBD luciferase transactivation assay in HeLa cells; type: cell-based; conditions: 10 µM, 24 h, alone or in competition with 9-cis retinoic acid 100 nM
T2 construct: expressed in transfected cells; host or cells: HeLa
T2 sequence (P19793 225-462): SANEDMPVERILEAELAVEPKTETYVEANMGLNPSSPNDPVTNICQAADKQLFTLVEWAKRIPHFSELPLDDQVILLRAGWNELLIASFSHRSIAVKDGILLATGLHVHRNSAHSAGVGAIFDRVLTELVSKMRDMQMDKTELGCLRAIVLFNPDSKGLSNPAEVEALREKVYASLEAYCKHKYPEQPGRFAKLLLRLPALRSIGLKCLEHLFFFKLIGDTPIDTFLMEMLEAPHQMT
Method: We cloned human RXRα LBD (residues 225–462) in the vector pBIND as described above. Transient co-transfections of HeLa cells with vectors encoding either Gal4DBD or Gal4 DBD-RXRα LBD fusion (both at 10 ng/well), pGL4.35 reporter gene (200 ng/well) and renilla luciferase gene (10 ng/well, internal control) were performed in batches of 10^5 cells seeded into 12-well tissue culture plates. The transfections were done using TransFectin Lipid Reagent (Biorad). Three hours after the transfections, cells were treated with either DMSO (0.1%, control) or compounds ccrp1, ccrp2 or ccrp3 at 10 µM, in the absence or the presence of 9-cis retinoic acid (RA, 100 nM). Following 24 h incubation, luciferase activities in each well were assessed as described above. Cells transfected with Gal4 DBD vector served as a control for RXR independent effects.

[5] = tested on: HeLa cells; test: Toxicity observed in transfection experiments; type: cell-based, human; conditions: tested at different concentrations
Method: HeLa cells were maintained in D-MEM High Glucose (Hyclone) supplemented with 10% charcoal:dextran stripped FBS (Hyclone) and 1x Pen/Strep antibiotics (Life Technologies). Transient transfections were carried out in batches on 100,000 cells seeded into 12-well tissue culture plates. The co-transfections were performed using the TransFectin Lipid reagent (Bio-Rad) with approximately 10 ng/well of Gal4 DBD (gift from Phuong Nguyen, Fletterick Laboratory, UCSF) or GAL4-TLX LBD, 10 ng/well of renilla luciferase gene (Promega) for internal control and 200 ng/well of pGL4.35 reporter gene (containing an upstream Gal4 Upstream Activator Sequence and the luciferase gene, Promega). Approximately, 3 h after transfections, cells were treated with compounds of interest at different concentrations, or solvent (DMSO, 0.1%) in DMEM containing no fetal bovine serum or antibiotics. After a 16-h incubation, luciferase activities were assessed using Dual Luciferase assay reagent (Promega). Luciferase activities were calculated by normalizing firefly luciferase to renilla luciferase signal. Normalized luciferase activities were then represented relative to control (DMSO-treated cells). Cells transfected with Gal4 DBD vector served as a control for TLX independent effects.

SMILES	effect on luciferase activities in absence of TLX [1]	effect on ERβ luciferase activity [2]	effect on PNR transcriptional activity [3]	effect on RXRα luciferase activity [4]	toxicity [5]
CC(=O)[C@H]1CC[C@H]2[C@@H]3C=CC4=CC(=O)CC[C@@]4(C)[C@@H]3CC[C@]12C [ccrp3, Dydrogesterone]	do not affect the luciferase activities	No effect on luciferase activity was detected	None of the compounds affected PNR transcriptional activity	No effect on luciferase activity was detected	None of the three compounds displayed toxicity
Cc1cc(C(=O)N2CCN(C(c3ccccc3)c3ccccc3)CC2)nn1C [ccrp2, 1-(1,5-dimethylpyrazole-3-carbonyl)-4-(diphenylmethyl)piperazine]	do not affect the luciferase activities	No effect on luciferase activity was detected	None of the compounds affected PNR transcriptional activity	No effect on luciferase activity was detected	None of the three compounds displayed toxicity
CC(C)c1c(CN(C)C(C)Cc2ccccc2)n(C)n(-c2ccccc2)c1=O (stereo not drawn) [ccrp1, Famprofazone]	do not affect the luciferase activities	No effect on luciferase activity was detected	None of the compounds affected PNR transcriptional activity	No effect on luciferase activity was detected	None of the three compounds displayed toxicity
